Structures are written as SMILES.

For the molecule `CN1CCC(c2cccc3c2C[C@H](NC(=O)c2ccc(N4CCOCC4)cc2)CC3)CC1` [Example 101, (R)-N-[8-(1-Methylpiperidin-4-yl)-1,2,3,4-tetrahydro-2-naphthyl]-4-morpholinobenzamide], the melting point lay in the range of 196 to 198 °C.

`CN1CCN(c2cccc3c2C[C@H](NC(=O)c2ccc(C(=O)N4CCOCC4)cc2)CC3)CC1` [Example 129, (R)-N-[8-(4-Methylpiperazin-1-yl)-1,2,3,4-tetrahydro-2-naphthyl]-4-morpholinocarbonylbenzamide] had a melting point of 124 to 127 °C.

For the molecule `CCc1ccc(-c2ccc(C(=O)N[C@@H]3CCc4cccc(N5CCN(C)CC5)c4C3)cc2)cc1` [Example 84, (R)-N-[8-(4-Methylpiperazin-1-yl)-1,2,3,4-tetrahydro-2-naphthyl]-4-(4-ethylphenyl)benzamide], the melting point lay within 234 to 235 °C.

`CN1CCN(c2cccc3c2CC[C@H](NC(=O)c2ccc(N4CCOCC4)cc2)C3)CC1` [Example 119, (S)-N-[5-(4-Methylpiperazin-1-yl)-1,2,3,4-tetrahydro-2-naphthyl]-4-morpholinobenzamide] returned a melting point of 129 to 131 °C.

On to `CN1CCN(c2cccc3c2C[C@H](NC(=O)c2ccccc2OS(C)(=O)=O)CC3)CC1` [Example 93, (R)-N-[8-(4-Methylpiperazin-1-yl)-1,2,3,4-tetrahydro-2-naphthyl]-2-methylsulfonyloxybenzamide], for which the melting point is 144 to 145 °C.

Turning to `CCCCN1CCN(c2cccc3c2C[C@H](NC(C)=O)CC3)CC1` [Example 27, (R)-N-[8-(4-Butylpiperazin-1-yl)-1,2,3,4-tetrahydro-2-naphthyl]acetamide], the melting point was 118 to 120 °C.

Molecule `CN1CCN(c2cccc3c2C[C@H](NC(=O)c2ccc(N4CCOCC4)cc2)CC3)CC1` [Example 54, (R)-N-[8-(4-Methylpiperazin-1-yl)-1,2,3,4-tetrahydro-2-naphthyl]-4-morpholinobenzamide] came in with a melting point of 230 to 231 °C.

Take `CN1CCN(c2cccc3c2C[C@H](NC(=O)c2ccc(-c4ccc(O)cc4)cc2)CC3)CC1` [Example 85, (R)-N-[8-(4-Methylpiperazin-1-yl)-1,2,3,4-tetrahydro-2-naphthyl]-4-(4-hydroxyphenyl)benzamide]: the melting point is 261 to 262 °C.

`CN1CCN(c2cccc3c2C[C@H](NC(=O)c2csc(-c4ccccc4)n2)CC3)CC1` [Example 46, (R)-N-[8-(4-Methylpiperazin-1-yl)-1,2,3,4-tetrahydro-2-naphthyl]-2-phenylthiazole-4-carboxamide] displayed a melting point of 175 to 176 °C.

For `CCc1ccc(C(=O)N[C@@H]2CCc3cccc(N4CCN(C)CC4)c3C2)cc1` [Example 69, (R)-N-[8-(4-Methylpiperazin-1-yl)-1,2,3,4-tetrahydro-2-naphthyl]-4-ethylbenzamide], the melting point lay within 177 to 178 °C.

Take `CN1CCN(c2cccc3c2C[C@H](NC(=O)c2ccc(C#N)cc2)CC3)CC1` [Example 50, (R)-N-[8-(4-Methylpiperazin-1-yl)-1,2,3,4-tetrahydro-2-naphthyl]-4-cyanobenzamide]: the melting point was in the range of 184 to 186 °C.

For the molecule `CN1CCN(c2cccc3c2C[C@H](NC(=O)c2ccccc2O)CC3)CC1` [Example 92, (R)-N-[8-(4-Methylpiperazin-1-yl)-1,2,3,4-tetrahydro-2-naphthyl]-2-hydroxybenzamide], the melting point was 87 °C (dec.).

`CN1CCN(c2cccc3c2C[C@H](NC(=O)C2CCCCC2)CC3)CC1` [Example 36, (R)-N-[8-(4-Methylpiperazin-1-yl)-1,2,3,4-tetrahydro-2-naphthyl]cyclohexanecarboxamide]: the melting point lay within 183 to 184 °C.

Take `CN1CCN(c2cccc3c2C[C@H](NC(=O)c2ccc(C(F)(F)F)cc2)CC3)CC1` [Example 65, (R)-N-[8-(4-Methylpiperazin-1-yl)-1,2,3,4-tetrahydro-2-naphthyl]-4-trifluoromethylbenzamide]: the melting point is 203 to 204 °C.

The molecule `CN1CCN(c2cccc3c2C[C@H](NC(=O)c2ccc(-c4ccccc4)cc2)CC3)CC1` [Example 44, (R)-N-[8-(4-Methylpiperazin-1-yl)-1,2,3,4-tetrahydro-2-naphthyl]-1,1′-biphenyl-4-carboxamide] had a melting point of 232 to 233 °C.

In turn, `CCCCOc1ccc(C(=O)N[C@H]2CCc3cccc(N4CCN(C)CC4)c3C2)cc1` [Example 71, (S)-N-[8-(4-Methylpiperazin-1-yl)-1,2,3,4-tetrahydro-2-naphthyl]-4-butoxybenzamide] had a melting point of 190 to 192 °C.

The molecule `CCCCCN1CCN(c2cccc3c2C[C@H](NC(C)=O)CC3)CC1` [Example 30, (R)-N-[8-(4-Pentylpiperazin-1-yl)-1,2,3,4-tetrahydro-2-naphthyl]acetamide] displayed a melting point of 119 to 120 °C.

The molecule `CN1CCN(c2cccc3c2C[C@H](NC(=O)c2ccc(F)cc2)CC3)CC1` [Example 72, (R)-N-[8-(4-Methylpiperazin-1-yl)-1,2,3,4-tetrahydro-2-naphthyl]-4-fluorobenzamide] returned a melting point of 189 to 190 °C.

In turn, `CCCC(=O)N[C@@H]1CCc2cccc(N3CCN(C)CC3)c2C1` gave a melting point of 131 to 132 °C.

In turn, `CN1CCN(c2cccc3c2C[C@H](NC(=O)c2csc(-c4ccncc4)n2)CC3)CC1` [Example 47, (R)-N-[8-(4-Methylpiperazin-1-yl)-1,2,3,4-tetrahydro-2-naphthyl]-2-(4-pyridyl)thiazole-4-carboxamide] came in with a melting point of 187 to 188 °C.

With `CCCCOc1ccc(C(=O)N[C@@H]2CCc3cccc(C4CCN(C)CC4)c3C2)cc1` [Example 100, (R)-N-[8-(1-Methylpiperidin-4-yl)-1,2,3,4-tetrahydro-2-naphthyl]-4-butoxybenzamide], the melting point lay within 162 to 164 °C.

`CN1CCN(c2cccc3c2C[C@H](NC(=O)c2cccc(Oc4ccccc4)c2)CC3)CC1` [Example 87, (R)-N-[8-(4-Methylpiperazin-1-yl)-1,2,3,4-tetrahydro-2-naphthyl]-3-phenoxybenzamide] came in with a melting point of 136 to 137 °C.

Consider `CN1CCN(c2cccc3c2C[C@H](NC(=O)c2ccc(-n4cccc4)cc2)CC3)CC1` [Example 78, (R)-N-[8-(4-Methylpiperazin-1-yl)-1,2,3,4-tetrahydro-2-naphthyl]-4-(1H-pyrrol-1-yl)benzamide], for which the melting point was 245 to 247 °C.

The record behind these values is patent US6410530B1, “Substituted 1,2,3,4-tetrahydronaphthalene derivatives” (AstraZeneca AB, priority 1996, dated 2002).
